Assay [1] can be described thus: Antimicrobial activity against Campylobacter fetus subsp. fetus CA73 harboring pCA73 carrying tet(44) resistance gene of 1516477 in presence of 5% lacked horse blood. The class given is functional.
Assay [2] is described as follows: Antimicrobial activity against ciprofloxacin-resistant Campylobacter fetus subsp. fetus 1516477 human isolate lacking tet(44) and ant(6)-Ib resistance genes in presence of 5% lacked horse blood.
Assay [3] is described as follows: Antimicrobial activity against nalidixic acid-resistant Campylobacter fetus subsp. fetus IMD523-06 bovine isolate harboring tet(44) and ant(6)-Ib resistance gene in presence of 5% lacked horse blood. The class given is functional.
Assay [4] in a line: Antimicrobial activity against Campylobacter fetus subsp. fetus CA80 harboring ciprofloxacin-resistant gene and IMD523-06 pathogenicity island with tet(44) and ant(6)-Ib resistant marker gene in presence of 5% lacked horse blood. It is filed as functional.
The nature of assay [5]: Antimicrobial activity against kanamycin-resistant Campylobacter fetus subsp. fetus CA74 harboring deletion in tet(44)::pCA64 resistant gene in presence of 5% lacked horse blood. The class given is functional.
Assay [6] in a line: Antimicrobial activity against kanamycin-resistant Campylobacter fetus subsp. fetus CA76 harboring deletion in ant(6)-Ib::pCA76 in presence of 5% lacked horse blood. The class given is functional.
A short description of assay [7]: Antimicrobial activity against Campylobacter fetus subsp. fetus CA75 harboring pCA75 carrying ant(6)-Ib resistant gene of 1516477 in presence of 5% lacked horse blood. The class given is functional.

Take `C[C@H]1c2cccc(O)c2C(=O)C2=C(O)[C@]3(O)C(=O)C(C(N)=O)=C(O)[C@@H](N(C)C)[C@@H]3[C@@H](O)[C@@H]21.O` [DOXYCYCLINE]: the MIC in assay [1] was determined as 32 µg/mL; in assay [2] it was 0.5 µg/mL; in assay [3], 8 µg/mL; in assay [4], 4 µg/mL; in assay [5], 0.5 µg/mL; in assay [6], 8 µg/mL. Besides, the MIC in assay [7] was determined as 0.5 µg/mL.
Turning to `CN(C)c1ccc(O)c2c1C[C@H]1C[C@H]3[C@H](N(C)C)C(O)=C(C(N)=O)C(=O)[C@@]3(O)C(O)=C1C2=O` [MINOCYCLINE], the minimum inhibitory concentration (MIC) came out at 32 µg/mL in assay [1]; 1 µg/mL in assay [2]; 16 µg/mL in assay [3]; 16 µg/mL in assay [4]; 2 µg/mL in assay [5]; 16 µg/mL in assay [6]. The MIC in assay [7] is 1 µg/mL.
As for `CN[C@@H]1[C@H](O[C@H]2[C@H](O[C@H]3[C@H](O)[C@@H](O)[C@H](N=C(N)N)[C@@H](O)[C@@H]3N=C(N)N)O[C@@H](C)[C@]2(O)C=O)O[C@@H](CO)[C@H](O)[C@H]1O` [STREPTOMYCIN], the MIC in assay [1] was ≤ 1 µg/mL; in assay [2], ≤ 1 µg/mL; in assay [3], > 64 µg/mL; in assay [4], 64 µg/mL; in assay [5], > 64 µg/mL; in assay [6], ≤ 1 µg/mL. The MIC in assay [7] was determined as 64 µg/mL.
Turning to `CN(C)[C@@H]1C(O)=C(C(N)=O)C(=O)[C@@]2(O)C(O)=C3C(=O)c4c(O)cccc4[C@@](C)(O)[C@H]3C[C@@H]12` [TETRACYCLINE], the MIC in assay [1] was > 32 µg/mL; in assay [2], 1 µg/mL; in assay [3], 16 µg/mL; in assay [4] it was 16 µg/mL; in assay [5], 1 µg/mL; in assay [6], 16 µg/mL. The MIC in assay [7] worked out at 1 µg/mL.

One may read the MIC as the lowest concentration found to suppress growth.

The values are drawn from ChEMBL document CHEMBL1275248, “Two novel antibiotic resistance genes, tet(44) and ant(6)-Ib, are located within a transferable pathogenicity island in Campylobacter fetus subsp. fetus” (2010).
